Measurements reported in ChEMBL document CHEMBL3779778, “Structure-based design and development of (benz)imidazole pyridones as JAK1-selective kinase inhibitors” (Bioorg Med Chem Lett, 2016).

Experiments:
[1] = Dissociation constant, pKa of the compound; format: physicochemical
[2] = Intrinsic clearance in human liver microsomes; format: ADME; details: read-out: CLH
[3] = Intrinsic clearance in human hepatocytes; format: ADME, cell-based, Hepatocyte; details: read-out: CLH

**Q.** With `O=c1[nH]ccc(N[C@H]2CC[C@@H](NCC(F)(F)F)CC2)c1-c1nc2ccccc2[nH]1` as the molecule, how does the pKa [1] read?
**A.** 4.8

**Q.** Which results are given for `N[C@H]1CC[C@@H](Nc2cc[nH]c(=O)c2-c2nc3ccccc3[nH]2)CC1`?
**A.** CLint scaled [2]: < 15 mL/min/kg; CLint scaled [3]: 12 mL/min/kg

**Q.** Which pKa [1] does the source give for `CCN[C@H]1CC[C@@H](Nc2cc[nH]c(=O)c2-c2nc3ccccc3[nH]2)CC1` here?
**A.** 10.5

**Q.** Which pKa [1] does the source give for `COCCN[C@H]1CC[C@@H](Nc2cc[nH]c(=O)c2-c2nc3ccccc3[nH]2)CC1` here?
**A.** 9.2

**Q.** For `O=c1[nH]ccc(N[C@H]2CC[C@@H](NCCF)CC2)c1-c1nc2ccccc2[nH]1`, which pKa [1] is on record?
**A.** 8.8

**Q.** With `O=c1[nH]ccc(N[C@H]2CC[C@@H](NCC(F)F)CC2)c1-c1nc2ccccc2[nH]1` as the molecule, how does the pKa [1] read?
**A.** 6.6
